The structures appear in SMILES notation. Where only a bound is given, the exact number is not on record here.

A short description of data set [1]: Plasma protein binding assay, human plasma (hPPB). Format: in vitro ADME. The following applies: 5 μM, equilibrium dialysis 4 hours 37° C. In short, it runs like this: (§1)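 Equilibrium dialysis of 5 μM compound in previously frozen human or mouse plasma against phosphate buffer, 4 h at 37 °C. Both chambers quantified by LC-MS/MS; % free = (1−((PC−PF)/PC))×100.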
(In equilibrium dialysis free small molecules cross a membrane that holds back macromolecules.)

Data set [2] is described as follows: Microsomal stability assay, mouse liver microsomes (MLM). The following applies: 0.5 mg/mL protein, 1 μM substrate. It is filed as in vitro ADME. In short, it runs like this:
(§2)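 Substrate depletion: 1 μM compound incubated at 37° C. with cryopreserved mouse or human liver microsomes at 0.5 mg·mL^−1 protein. Timed aliquots quenched in ice-cold organic solvent and measured by LC-MS/MS; t1/2 and CLint derived from the slope of ln % remaining versus time.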
On the technique in general: Microsomes from liver hold many membrane-bound enzymes, among them those of drug oxidation.

Data set [3] is described as follows: Plasma protein binding assay, mouse plasma (mPPB). The following applies: 5 μM, equilibrium dialysis 4 hours 37° C. It is filed as in vitro ADME. The procedure, abridged: as §1
Data set [4] has as its system RAF dimers in HCT-116 cells. The data set can be described thus: HCT-116 AlphaLISA SureFire pERK1/2 cellular assay (dimer). It is filed as cell-based. The following applies: Homo sapiens, HCT-116; HCT116 cells pre-dosed with 1 μM Encorafenib, 1 hr; read-out: pERK HCT116 dimer (1 hr) pIC50 (converted). The procedure, abridged: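 HCT-116 (KRAS G13D) cells, 30,000/well, pretreated 1 h with 1 μM Encorafenib to induce RAF dimers, washed, then dosed 1 h at 37° C with compound (10-point, top 10 μM, 1/2 log steps) in growth medium. pERK1/2 (T202/Y204) measured by AlphaLISA SureFire; absolute IC50 versus DMSO control.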
In general terms: Alpha assays give light when donor and acceptor beads are brought close together.

In data set [5] the test system is BRAF monomers in A375 cells. Kind of data set: A375 AlphaLISA SureFire pERK1/2 cellular assay (monomer). Format: cell-based. The following applies: Homo sapiens, A-375; A375 cells, 1 hr; read-out: pERK A375 (1 hr) pIC50 (converted). In short, it runs like this:
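BRAF^V600E A375 melanoma cells seeded at 30,000/well in DMEM with 10% FBS, dosed without medium exchange in a 10-point series from 10 μM at 1/2-log steps, 1 h at 37 °C. Phospho-ERK1/2 (Thr202/Tyr204) measured in lysates by AlphaLISA SureFire; absolute IC50 relative to DMSO control.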

Data set [6] can be described thus: Solubility (Sol), medium not stated. It is filed as physicochemical. The following applies: cells not marked (FESSIF).
A short description of data set [7]: Microsomal stability assay, human liver microsomes (HLM). Format: in vitro ADME. The following applies: 0.5 mg/mL protein, 1 μM substrate. In short, it runs like this: as §2

Turning to `N#Cc1ccc(-c2c[nH]c(C3COc4ccc(Oc5ccnc6c5CCC(=O)N6)cc4C3)n2)cc1` (centres unmarked) [Compound 21], in data set [1], the “hPPB (% free)” value was determined as 0.7 % free. The values for the microsomal CLint at 1 μM in data set [2] and in data set [7] were 23.2 µL/min/mg and 15.6 µL/min/mg, respectively. Besides, the “mPPB (% free)” value in data set [3] came to 1.6 % free. For the same compound, the IC50 was 275 nM in data set [4] and 933 nM in data set [5]. The Sol in data set [6] is less than 1.2 mg/L.
`CC(C)NCc1cc(-c2c[nH]c(C3COc4ccc(Oc5ccnc6c5CCC(=O)N6)cc4C3)n2)cc(C(F)(F)F)c1` (centres unmarked) [Compound 6, 5-[3-[4-[3-[(isopropylamino)methyl]-5-(trifluoromethyl)phenyl]-1H-imidazol-2-yl]chroman-6-yl]oxy-3,4-dihydro-1H-1,8-naphthyridin-2-one]: the “hPPB (% free)” value in data set [1] stood at 2.4 % free. In addition, the microsomal CLint at 1 μM in data set [2] is 18.1 µL/min/mg; in data set [7] it was 33.4 µL/min/mg. Moreover, in data set [3], the “mPPB (% free)” value is 1.3 % free. For the same compound, the IC50 in data set [4] was 447 nM; in data set [5], 977 nM. Besides, in data set [6], the Sol is on record as less than 1.4 mg/L.
On to `O=C1CCc2c(Oc3ccc4c(c3)CN(C(=O)NCc3ccccc3)CC4)ccnc2N1` [Compound 48], for which the “hPPB (% free)” value in data set [1] is on record as 2 % free. The microsomal CLint at 1 μM in data set [2] worked out at 38.4 µL/min/mg; in data set [7], 40.5 µL/min/mg. Moreover, the “mPPB (% free)” value in data set [3] is recorded as 3 % free. Besides, the figures for the IC50 in data set [4] and in data set [5] were 7240 nM and 9120 nM, respectively. In data set [6], the Sol is listed as less than 1.1 mg/L.
In the case of `O=C1CCc2c(Oc3ccc4c(c3)CC(c3nc(-c5cc(F)ccc5F)c[nH]3)CO4)ccnc2N1` (centres unmarked) [Compound 5, 5-[3-[4-(2,5-difluorophenyl)-1H-imidazol-2-yl]chroman-6-yl]oxy-3,4-dihydro-1H-1,8-naphthyridin-2-one], the “hPPB (% free)” value in data set [1] worked out at 0.3 % free. For the same compound, the microsomal CLint at 1 μM in data set [2] came to 28.5 µL/min/mg; in data set [7], 33.9 µL/min/mg. In addition, in data set [3], the “mPPB (% free)” value is reported as 0.4 % free. Also, the results for the IC50 in data set [4] and in data set [5] were 191 nM and 186 nM, respectively. The same compound had a Sol in data set [6] of less than 1.2 mg/L.
As to `CN(C)Cc1cc(-c2c[nH]c(C3COc4ccc(Oc5ccnc6c5CCC(=O)N6)cc4C3)n2)cc(C(F)(F)F)c1` (centres unmarked) [Compound 7, 5-[3-[4-[3-[(dimethylamino)methyl]-5-(trifluoromethyl)phenyl]-1H-imidazol-2-yl]chroman-6-yl]oxy-3,4-dihydro-1H-1,8-naphthyridin-2-one], the “hPPB (% free)” value in data set [1] turned out to be 1.9 % free. Also, the microsomal CLint at 1 μM in data set [2] turned out to be 39.2 µL/min/mg; in data set [7], 67.9 µL/min/mg. Further, the “mPPB (% free)” value in data set [3] amounted to 0.9 % free. For the same compound, the IC50 in data set [4] was 191 nM; in data set [5], 692 nM. The compound further registered a Sol in data set [6] of less than 1.4 mg/L.
Take `O=C1CCc2c(Oc3ccc4c(c3)CC(c3nc(-c5cccc(F)c5)c[nH]3)CO4)ccnc2N1` (centres unmarked) [Compound 15, 5-[3-[4-(3-fluorophenyl)-1H-imidazol-2-yl]chroman-6-yl]oxy-3,4-dihydro-1H-1,8-naphthyridin-2-one]: the “hPPB (% free)” value in data set [1] was 0.2 % free. Also, the figures for the microsomal CLint at 1 μM in data set [2] and in data set [7] were 33.9 µL/min/mg and 39.9 µL/min/mg, respectively. Further, in data set [3], the “mPPB (% free)” value was 1.3 % free. In addition, the results for the IC50 in data set [4] and in data set [5] were 67.6 nM and 24 nM, respectively. The compound also gave a Sol in data set [6] of less than 1.1 mg/L.
As for `COc1ccc(-c2c[nH]c(C3COc4ccc(Oc5ccnc6c5CCC(=O)N6)cc4C3)n2)cc1` (centres unmarked) [Compound 10, 5-[3-[4-(4-methoxyphenyl)-1H-imidazol-2-yl]chroman-6-yl]oxy-3,4-dihydro-1H-1,8-naphthyridin-2-one], the “hPPB (% free)” value in data set [1] was determined as 0.6 % free. The microsomal CLint at 1 μM in data set [2] was 45.9 µL/min/mg; in data set [7] it was 89.1 µL/min/mg. Further, in data set [3], the “mPPB (% free)” value is recorded as 0.7 % free. Also, the IC50 was 282 nM in data set [4] and 832 nM in data set [5]. Moreover, the Sol in data set [6] was less than 1.2 mg/L.
In the case of `O=C1CCc2c(Oc3ccc4c(c3)CC(c3nc5c(C(F)(F)F)cccc5[nH]3)CO4)ccnc2N1` (centres unmarked) [Compound 27], the “hPPB (% free)” value in data set [1] is less than 0.1 % free. Also, the results for the microsomal CLint at 1 μM in data set [2] and in data set [7] were 148 µL/min/mg and 102 µL/min/mg, respectively. For the same compound, the “mPPB (% free)” value in data set [3] is reported as less than 0.1 % free. Also, the results for the IC50 in data set [4] and in data set [5] were 380 nM and 389 nM, respectively. The compound also registered a Sol in data set [6] of less than 1.2 mg/L.

In general, microsomal CLint refers to the rate of metabolic loss divided by the concentration.

Values taken from patent publication US12304912B2, “Fused bicyclic RAF inhibitors and methods for use thereof” (Jazz Pharmaceuticals Ireland Limited, priority 2020, dated 2025).
